In one experiment the test system is B16F10-OVA tumors. Description: B16F10-OVA tumor model with PolyI:C adjuvant. Format: in vivo, mice. The procedure:
FIG. 16F is a series of four line graphs of the Individual growth curves of subcutaneous B16F10-OVA tumor volume following 21 days of pre-treatment with vehicle versus apilimod, 30 mg/kg daily, with or without subcutaneous injection of water versus PolyI:C, 100 μg on Day 1 and Day 14.
FIG. 16H is a series of four line graphs of the Individual growth curves of subcutaneous B16F10-OVA tumor volume in mice treated with vehicle or apilimod, 30 mg/kg daily, with or without a subcutaneous injection of water versus PolyI:C, 100 μg once weekly.
FIG. 26I is a line graph of the subcutaneous tumor volume of B16F10-OVA tumors following 21 days of pre-treatment with vehicle versus apilimod, 30 mg/kg×5 days/week, with or without subcutaneous injection of water versus PolyI:C, 100 μg on Day 1 and Day 14.
FIG. 26J is a line graph of the subcutaneous tumor volume of B16F10-OVA tumors in mice treated with vehicle or apilimod, 30 mg/kg×5 days/week, with or without subcutaneous injection of water versus PolyI:C, 100 μg once weekly.

The subject of another experiment is cDCs. Description: Phenotype of cultured cDCs (flow cytometry, western blot). Format: cell-based, mice. The procedure:
FIG. 13G (Left) is a line graph of the relative median fluorescent intensity of the surface MHC-I on DMSO or apilimod-treated cDCs treated for 20 hours after 6 days of culture. FIG. 13G (Right) is a box and whisker plot of the surface MHC-I on DMSO or apilimod-treated cDCs treated for 20 hours after 6 days of culture
FIG. 13H a western blot showing the total vinculin, loading control, and total MHC-I in DMSO or apilimod-treated, 20 hours, cDC lysates after 6 days of culture.
FIG. 13K (Left) is a line graph of the relative median fluorescent intensity of the surface MHC-II on DMSO or apilimod-treated, 20 hours, cDCs treated after 6 days of culture. FIG. 13K (Right) is a box and whisker plot of the surface MHC-II on DMSO or apilimod-treated, 20 hours, cDCs treated after 6 days of culture.
FIG. 13L a western blot showing the total vinculin, loading control, and total MHC-II in DMSO or apilimod-treated, 20 hours, cDC lysates after 6 days of culture.
FIG. 13N a western blot showing the total histone H3, loading control, and total CD80 and CD86 in apilimod-treated, 20 hours, PIKfyve WT vs. KO cDC lysates after 6 days of culture.
FIG. 13P is a series of six scatter plots of surface CD80 and CD86 on DMSO or apilimod-treated cDCs, with or without 20 hours of PolyI:C, 50 μg/ml, or lipopolysaccharide (LPS), 50 ng/ml, treatment after 6 days of culture.
FIG. 13R a western blot showing the total vinculin, loading control, and total CD40 in DMSO or apilimod-treated, 20 hours, cDC lysates treated with or without additional LPS, 50 ng/ml, after 6 days of culture day 6.
FIG. 19B is a line graph of representative density plot of median fluorescent intensity of surface XCR1 in DMSO or apilimod-treated, 20 hours, cDCs after 6 days of culture.
FIG. 26G is a line graph of the relative median fluorescent intensity of the surface MHC-I, H2-kb, H2-kd, on DMSO or apilimod-treated cDCs with or without PolyI:C, 50 μg/ml or LPS, 50 ng/ml, treatment, 20 hours, after 6 days of culture.
FIG. 26H is a line graph of the relative median fluorescent intensity of the surface MHC-II, MHC-IA-IE, on DMSO or apilimod-treated cDCs with or without PolyI:C, 50 μg/ml or LPS, 50 ng/ml, treatment, 20 hours, after 6 days of culture.

Experiment [1] deals with cDCs co-cultured with OT-I and OT-II cells. Description: cDC antigen presentation and OT-I/OT-II co-culture. Format: cell-based, mice. The procedure:
FIG. 13T is a box and whisker plot of the percentage of IFNγ^+ OT-I cells after 72 hours of co-culture with DMSO or apilimod pre-treated cDCs with or without sOVA, 10 μg/ml.
FIG. 13V is a box and whisker plot of the percentage of IFNγ^+ OT-II cells after 72 hours of co-culture with DMSO or apilimod pre-treated cDCs with or without sOVA, 10 μg/ml.
FIG. 19G is a line graph (Left) and box and whisker plot (Right) of relative median fluorescent intensity of surface H-2kb-SIINFEKL in DMSO or apilimod-treated cDCs with or without 12 hours of pOVA, 100 ng/ml, treatment.
FIG. 19H is a scatter plot (Left) and box and whisker plot (Right) of relative median fluorescent intensity of percent H2kb-SIINFEKL^+ cells in DMSO or apilimod-treated cDCs with or without 12 hours of pOVA, 100 ng/ml, treatment.
FIG. 20D is a scatter plot (Left) and box and whisker plot (Right) of percentage of IFNγ^+ OT-I cells after 48 hours of co-culture with DMSO or apilimod pre-treated cDCs with or without pOVA, 100 ng/ml.
FIG. 20E is a scatter plot (Left) and box and whisker plot (Right) of percentage of granzyme B^+ OT-I cells after 48 hours of co-culture with DMSO or apilimod pre-treated cDCs with or without pOVA, 100 ng/ml.
FIG. 20H is a box and whisker plot of the percent of Ki67^+ OT-I cells after 72 hours of co-culture with DMSO or apilimod pre-treated cDCs with or without sOVA, 10 μg/ml.
FIG. 20I is a box and whisker plot of the percent of Ki67^+ OT-II cells after 72 hours of co-culture with DMSO or apilimod pre-treated cDCs with or without sOVA, 10 μg/ml.

Take `Cc1cccc(/C=N/Nc2cc(N3CCOCC3)nc(OCCc3ccccn3)n2)c1` [apilimod, N-[(E)-(3-methylphenyl)methylideneamino]-6-morpholin-4-yl-2-(2-pyridin-2-ylethoxy)pyrimidin-4-amine]: the subsequent tumor growth entry in the experiment with B16F10-OVA tumors (21 days pre-treatment, combination of apilimod and PolyI:C, vs control or either agent alone) is recorded as “decrease”. Further, in the experiment on B16F10-OVA tumors (treatment after inoculation, combination of apilimod and PolyI:C), the tumor growth inhibition result is listed as “further potentiated”. The tumor growth entry in the experiment on B16F10-OVA tumors (treatment after inoculation, each agent alone) was “modest tumor growth inhibition”. The “surface and total protein expression of MHC-II” value in the experiment with cDCs (20 hours) is recorded as “increased”. The “MHC-I and MHC-II expression” value in the experiment on cDCs (DCs in vitro, each agent) was “stimulated”; in the experiment with cDCs (apilimod added to PolyI:C or LPS), “further enhanced”. The “CD80 and CD86 expression” value with cDCs (WT DCs, in a dose-dependent manner) is reported as “induced”. In addition, the “total expression of CD40” value in the experiment on cDCs (added to LPS treatment, vs DMSO) was “increased”. For the same compound, in the experiment with cDCs (alone and in combination with PolyI:C and LPS), the “CD80+CD86+ cDCs” value is “increase”. The “surface and total protein expression of MHC-I” value in the experiment on cDCs (cDCs from WT mice, 20 hours) was “increased”. In the experiment on cDCs (cultured cDCs, 20 hours, vs DMSO), the “total surface expression of XCR1” value is reported as “increase”. For the same compound, the “total intensity and percentage of cells with H2-kb-SIINFEKL surface expression” value in experiment [1] (pOVA, vs DMSO) is recorded as “greater”. Besides, in experiment [1] (peptide antigen-loaded cDCs, vs DMSO), the “T cell activation (IFNγ+ and granzyme B+ OT-I cells)” value is on record as “increase”. In addition, the “percentages of Ki67+ and IFNγ+ OT-I cells” value in experiment [1] (sOVA-loaded cDCs, vs DMSO) is listed as “increases”. In addition, the “percentages of Ki67+ and IFNγ+ OT-II cells” value in experiment [1] (sOVA-loaded cDCs, vs control) was “higher percentages”.

The values are drawn from patent publication US20250144107A1, “USE OF A PIKFYVE INHIBITOR IN COMBINATION WITH IMMUNOTHERAPY” (The Regents of the University of Michigan, priority 2023, published 2025).
